In this test the test system is beet armyworm (Spodoptera exigua). Kind of test: Test C: control of beet armyworm on corn (maize) plant, foliar spray. The class given is in vivo. The note with it: sprayed at 50 ppm; corn (maize) plant pre-infested with 10-15 1-day-old larvae; visually rated as in Test A. How it is done:
Test compounds were formulated using a solution containing 10% acetone, 90% water and 300 ppm X-77® Spreader Lo-Foam Formula non-ionic surfactant containing alkylarylpolyoxyethylene, free fatty acids, glycols and isopropanol (Loveland Industries, Inc.), unless otherwise indicated. The formulated compounds were applied in 1 mL of liquid through a SUJ2 atomizer nozzle with ⅛ JJ custom body (Spraying Systems Co,) positioned 1.27 cm (0.5 inches) above the top of each test unit. All experimental compounds in this screen were sprayed at 250 ppm and replicated three times. After spraying of the formulated test compound, each test unit was allowed to dry for 1 hour and then a black, screened cap was placed on top. The test units were held for 6 days in a growth chamber at 25° C. and 70% relative humidity. Plant feeding damage was then visually assessed. For evaluating control of beet armyworm (Spodoptera exigua) the test unit consisted of a small open container with a 4-5-day-old corn (maize) plant inside. This was pre-infested with 10-15 1-day-old larvae on a piece of insect diet by use of a core sampler as described for Test A. Test compounds were formulated and sprayed at 50 ppm as described for Test A. The applications were replicated three times. After spraying, the test units were maintained in a growth chamber and then visually rated as described for Test A.

Where only a bound is given, the exact number is not on record here.

As to `CC1=C(NC(=O)c2cc(C(F)(F)F)nn2-c2ncccc2Cl)C(C(=O)NC(C)C)CS1` (stereo not shown) [Compound 1, 1-(3-Chloro-2-pyridinyl)-N-[4,5-dihydro-2-methyl-4-[[(1-methylethyl)amino]carbonyl]-3-thienyl]-3-(trifluoromethyl)-1H-pyrazole-5-carboxamide], the “feeding damage (very good levels of plant protection)” value was at most 20%.

These data come from US20040259913A1, “Diamide invertebrate pest control agents” (priority 2002, published 2004).
